Reference: ChEMBL document CHEMBL3045407, “Synthesis and antimicrobial activity of pyrazolinones and pyrazoles having benzothiazole moiety” (2012)
In brackets after ≈: the same amount, converted by molar mass.

Experiments:
Type in all cases: functional
[1] = system: Escherichia coli; assay: Antimicrobial activity against Escherichia coli ATCC 25922 by serial plate dilution method
[2] = system: Aspergillus niger; assay: Antimicrobial activity against Aspergillus niger ATCC 9029 by serial plate dilution method
[3] = system: Staphylococcus aureus; assay: Antimicrobial activity against Staphylococcus aureus ATCC 25923 by serial plate dilution method
[4] = system: Candida albicans; assay: Antimicrobial activity against Candida albicans ATCC 90028 by serial plate dilution method

SMILES | MIC [1] [µM] | MIC [2] [µM] | MIC [3] [µM] | MIC [4] [µM]
NNc1nc2ccc(Cl)cc2s1 | 501 (≈ 100 µg/mL) | 1000 (≈ 200 µg/mL) | 250 (≈ 50 µg/mL) | 501 (≈ 100 µg/mL)
COc1ccc(N/N=C2/C(=O)N(c3nc4ccc(Cl)cc4s3)N=C2C)cc1 | 251 (≈ 100 µg/mL) | 501 (≈ 200 µg/mL) | 125 (≈ 50.1 µg/mL) | 251 (≈ 100 µg/mL)
CC1=NN(c2nc3ccc(Cl)cc3s2)C(=O)/C1=N/Nc1ccc(Br)cc1 | 112 (≈ 50.1 µg/mL) | 223 (≈ 100 µg/mL) | 13.9 (≈ 6.26 µg/mL) | 112 (≈ 50.1 µg/mL)
CC1=NN(c2nc3ccc(Cl)cc3s2)C(=O)/C1=N/Nc1ccc(F)cc1 | 129 (≈ 50.1 µg/mL) | 129 (≈ 50.1 µg/mL) | 32.3 (≈ 12.5 µg/mL) | 64.6 (≈ 25 µg/mL)
CC1=NN(c2nc3ccc(Cl)cc3s2)C(=O)/C1=N/Nc1ccc(Cl)cc1 | 62 (≈ 25.1 µg/mL) | 124 (≈ 50.1 µg/mL) | 31 (≈ 12.5 µg/mL) | 124 (≈ 50.1 µg/mL)
CC1=NN(c2nc3ccc(Cl)cc3s2)C(=O)/C1=N/Nc1ccc(C)cc1 | 131 (≈ 50.1 µg/mL) | 261 (≈ 100 µg/mL) | 65.3 (≈ 25.1 µg/mL) | 522 (≈ 200 µg/mL)
CC1=NN(c2nc3ccc(Cl)cc3s2)C(=O)/C1=N/Nc1ccccc1C | 261 (≈ 100 µg/mL) | 261 (≈ 100 µg/mL) | 131 (≈ 50.1 µg/mL) | 522 (≈ 200 µg/mL)
CC1=NN(c2nc3ccc(Cl)cc3s2)C(=O)/C1=N/Nc1ccc(C(=O)O)cc1 | 242 (≈ 100 µg/mL) | 484 (≈ 200 µg/mL) | 121 (≈ 50.1 µg/mL) | 242 (≈ 100 µg/mL)
CC1=NN(c2nc3ccc(Cl)cc3s2)C(=O)/C1=N/Nc1ccccc1C(=O)O | 484 (≈ 200 µg/mL) | 484 (≈ 200 µg/mL) | 242 (≈ 100 µg/mL) | 121 (≈ 50.1 µg/mL)
CC1=NN(c2nc3ccc(Cl)cc3s2)C(=O)/C1=N/Nc1ccccc1O | 260 (≈ 100 µg/mL) | 519 (≈ 200 µg/mL) | 130 (≈ 50.1 µg/mL) | 260 (≈ 100 µg/mL)
CC(=O)N1CCN(c2ccc(OCC3COC(Cn4ccnc4)(c4ccc(Cl)cc4Cl)O3)cc2)CC1 (stereo unspecified) [KETOCONAZOLE] | – | 11.8 (≈ 6.25 µg/mL) | – | 5.88 (≈ 3.12 µg/mL)

Now from value to compound:

MIC [1] [µM] | MIC [2] [µM] | MIC [3] [µM] | MIC [4] [µM] | SMILES
124 (≈ 50.2 µg/mL) | 248 (≈ 100 µg/mL) | 62 (≈ 25.1 µg/mL) | 248 (≈ 100 µg/mL) | CC1=NN(c2nc3ccc(Cl)cc3s2)C(=O)/C1=N/Nc1ccccc1Cl
243 (≈ 100 µg/mL) | 243 (≈ 100 µg/mL) | 122 (≈ 50.1 µg/mL) | 243 (≈ 100 µg/mL) | Cc1nn(-c2nc3ccc(Cl)cc3s2)c(C)c1/N=N/c1ccc(C(=O)O)cc1
487 (≈ 200 µg/mL) | 122 (≈ 50.1 µg/mL) | 122 (≈ 50.1 µg/mL) | 243 (≈ 100 µg/mL) | Cc1nn(-c2nc3ccc(Cl)cc3s2)c(C)c1/N=N/c1ccccc1C(=O)O
522 (≈ 200 µg/mL) | 522 (≈ 200 µg/mL) | 522 (≈ 200 µg/mL) | 261 (≈ 100 µg/mL) | Cc1nn(-c2nc3ccc(Cl)cc3s2)c(C)c1/N=N/c1ccccc1O
252 (≈ 100 µg/mL) | 504 (≈ 200 µg/mL) | 252 (≈ 100 µg/mL) | 63 (≈ 25.1 µg/mL) | COc1ccc(/N=N/c2c(C)nn(-c3nc4ccc(Cl)cc4s3)c2C)cc1
112 (≈ 50.1 µg/mL) | 56 (≈ 25 µg/mL) | 112 (≈ 50.1 µg/mL) | 112 (≈ 50.1 µg/mL) | Cc1nn(-c2nc3ccc(Cl)cc3s2)c(C)c1/N=N/c1ccc(Br)cc1
32.5 (≈ 12.5 µg/mL) | 130 (≈ 50.1 µg/mL) | 64.9 (≈ 25.1 µg/mL) | 260 (≈ 100 µg/mL) | Cc1nn(-c2nc3ccc(Cl)cc3s2)c(C)c1/N=N/c1ccc(F)cc1
125 (≈ 50.2 µg/mL) | 31.2 (≈ 12.5 µg/mL) | 15.6 (≈ 6.27 µg/mL) | 249 (≈ 100 µg/mL) | Cc1nn(-c2nc3ccc(Cl)cc3s2)c(C)c1/N=N/c1ccc(Cl)cc1
249 (≈ 100 µg/mL) | 125 (≈ 50.2 µg/mL) | 499 (≈ 201 µg/mL) | 125 (≈ 50.2 µg/mL) | Cc1nn(-c2nc3ccc(Cl)cc3s2)c(C)c1/N=N/c1ccccc1Cl
65.6 (≈ 25.1 µg/mL) | 262 (≈ 100 µg/mL) | 131 (≈ 50.1 µg/mL) | 131 (≈ 50.1 µg/mL) | Cc1ccc(/N=N/c2c(C)nn(-c3nc4ccc(Cl)cc4s3)c2C)cc1
262 (≈ 100 µg/mL) | 525 (≈ 200 µg/mL) | 262 (≈ 100 µg/mL) | 262 (≈ 100 µg/mL) | Cc1ccccc1/N=N/c1c(C)nn(-c2nc3ccc(Cl)cc3s2)c1C
